Our source for the TGI and GI50 values is PubChem BioAssay (NCI).

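Dose response: 5 concentrations. Exposure: 48 h. Format: 96-well plates. Endpoint: linear interpolation; highest concentration if not reached. Abbreviation: GI50, concentration required for 50% inhibition of growth. The concentration for full growth arrest is given as TGI.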

Some test systems named below: HCT-116 colon; NCI-H460 lung; LOX IMVI melanoma; SF-539 CNS; SK-MEL-2 melanoma; MALME-3M melanoma; HOP-62 NSCLC; SW-620 colon; K-562 leukemia; HS 578T breast.
Common to all, as to experiment: NCI-60 cell line screen, 48 h

Turning to `NC1CCCCC1NCCNC1CCCCC1N` (stereo not given), the TGI in the assay with HCT-116 colon, in the assay with NCI-H460 lung, in the assay on LOX IMVI melanoma, with SF-539 CNS, in the assay with SK-MEL-2 melanoma and with MALME-3M melanoma was greater than 100 µM throughout. Moreover, the TGI with HOP-62 NSCLC, in the assay with SW-620 colon, with K-562 leukemia and in the assay with HS 578T breast was greater than 100 µM throughout.

For the compound `C/C(=N\Nc1nc2ccccc2[nH]1)c1ncccn1`, the TGI is 1.74 µM in the assay on HCT-116 colon; greater than 100 µM in the assay on NCI-H460 lung; greater than 100 µM in the assay on LOX IMVI melanoma; 0.0543 µM with SF-539 CNS; 17.7 µM in the assay on SK-MEL-2 melanoma; 8.89 µM in the assay with MALME-3M melanoma. In addition, the TGI in the assay on HOP-62 NSCLC was 49.4 µM; in the assay with SW-620 colon, greater than 100 µM; in the assay on K-562 leukemia, greater than 100 µM; in the assay on HS 578T breast, greater than 100 µM.

In the case of `CC(CCc1nc2ccccc2s1)(c1ccc(O)cc1)c1ccc(O)cc1`, the TGI with HCT-116 colon was 34 µM; in the assay on NCI-H460 lung, 30 µM; with LOX IMVI melanoma, 29.4 µM; with SK-MEL-2 melanoma, 31.4 µM; with MALME-3M melanoma, 31 µM; in the assay on HOP-62 NSCLC, 31.5 µM. The TGI with SW-620 colon is 43.5 µM; in the assay with K-562 leukemia, 47.2 µM; in the assay on HS 578T breast, 52.9 µM.

Take `Cc1c(OCc2cccc3ccccc23)ccc2c(=O)cc(SCCN3CCOCC3)oc12`: the TGI in the assay with HCT-116 colon, in the assay on NCI-H460 lung, with LOX IMVI melanoma, with SF-539 CNS, in the assay on SK-MEL-2 melanoma and with HOP-62 NSCLC was greater than 100 µM each time. Besides, the TGI with SW-620 colon, with K-562 leukemia and with HS 578T breast was greater than 100 µM in each case.

With `c1ccc2c(Nc3ncco3)cccc2c1`, the TGI in the assay with HCT-116 colon, in the assay with NCI-H460 lung, in the assay with LOX IMVI melanoma, in the assay with SF-539 CNS, with MALME-3M melanoma and in the assay with HOP-62 NSCLC was greater than 10 µM in each case. Moreover, the TGI in the assay with SW-620 colon, in the assay with K-562 leukemia and in the assay with HS 578T breast was greater than 10 µM each time.

For `C/C(=C\Cc1ccc(F)cc1)CCCCCC/C(C)=C/Cc1ccc(F)cc1`, the TGI with HCT-116 colon came out at 33 µM; with NCI-H460 lung, 17 µM; in the assay on LOX IMVI melanoma, 19.9 µM; in the assay with SF-539 CNS, 31.8 µM; in the assay with SK-MEL-2 melanoma it was 37.2 µM; in the assay on HOP-62 NSCLC it was 37.2 µM. The results for the TGI with SW-620 colon, in the assay on K-562 leukemia and in the assay with HS 578T breast were 48.6 µM, 28.5 µM and 78.1 µM, respectively.

`O=[N+]([O-])c1ccc(N2N=C(c3c(O)ccc4ccccc34)CC2c2ccc(Cl)cc2)c([N+](=O)[O-])c1` (stereo not given): the TGI in the assay with HCT-116 colon is 37.2 µM; in the assay on NCI-H460 lung it was greater than 100 µM; in the assay on SF-539 CNS, 91.7 µM; with SK-MEL-2 melanoma, 44.2 µM; with MALME-3M melanoma, 63 µM; in the assay with HOP-62 NSCLC, 61.6 µM. The TGI is greater than 100 µM with SW-620 colon, 45.6 µM in the assay with K-562 leukemia and greater than 100 µM in the assay with HS 578T breast.

For `COC(=O)/C=C\n1nc(Br)c(=O)[nH]c1=O`, the TGI in the assay on NCI-H460 lung, with LOX IMVI melanoma, with SF-539 CNS, in the assay with SK-MEL-2 melanoma, in the assay with MALME-3M melanoma and in the assay on HOP-62 NSCLC was greater than 100 µM in each case. Besides, the TGI in the assay on SW-620 colon, with K-562 leukemia and in the assay on HS 578T breast was greater than 100 µM in each case.

As to `O=C1c2ccccc2C2(c3ccc(F)cc3)NCCN12` (stereo not given), the TGI in the assay with HCT-116 colon, in the assay on NCI-H460 lung, in the assay on SK-MEL-2 melanoma, with MALME-3M melanoma, with HOP-62 NSCLC and with SW-620 colon was greater than 100 µM in each case. Moreover, the TGI with K-562 leukemia and with HS 578T breast was greater than 100 µM throughout.

Turning to `COc1c(C)c(C/C=C(\C)CCCC(C)CCCC(C)CCCC(C)C)c(OC)c2ccccc12` (stereo not given), the TGI in the assay with HCT-116 colon, in the assay on NCI-H460 lung, in the assay on LOX IMVI melanoma, in the assay on SF-539 CNS, in the assay with SK-MEL-2 melanoma and with SW-620 colon was greater than 100 µM each time. Besides, the TGI in the assay on K-562 leukemia and with HS 578T breast was greater than 100 µM in each case.

For the compound `COc1cc2c3c(n(C)c(=O)c2cc1OC)-c1cc2c(cc1/C3=C\CCCCCBr)OCO2`, the GI50 in the assay with HCT-116 colon is 6.14 µM; in the assay on SF-539 CNS, 5.7 µM; in the assay with HOP-62 NSCLC it was 3.09 µM. For the same compound, the TGI in the assay with HCT-116 colon is 44.7 µM; in the assay on NCI-H460 lung it was 69.8 µM; in the assay on LOX IMVI melanoma it was 13.7 µM; with SF-539 CNS, 89.8 µM; in the assay with SK-MEL-2 melanoma, greater than 100 µM; in the assay on HOP-62 NSCLC, 25.1 µM. Further, the TGI in the assay on SW-620 colon is greater than 100 µM; in the assay with K-562 leukemia, 30.2 µM; in the assay with HS 578T breast, greater than 100 µM.

For the compound `O=Nc1c(-c2c(O)[nH]c3ccc(I)cc23)[nH]c2ccccc12`, the TGI was greater than 47.4 µM with NCI-H460 lung; greater than 24.5 µM in the assay with LOX IMVI melanoma; 81.5 µM with SF-539 CNS; 4.93 µM in the assay with SK-MEL-2 melanoma; greater than 32.7 µM in the assay with MALME-3M melanoma; greater than 30.8 µM with HOP-62 NSCLC. In the assay on HS 578T breast, the TGI was greater than 29.8 µM.

For the compound `O=C(O)CSC1=NNC2(C(=O)N1)c1ccccc1-c1ccccc12`, the TGI with HCT-116 colon, with NCI-H460 lung, with LOX IMVI melanoma, in the assay on SF-539 CNS, in the assay on MALME-3M melanoma and in the assay with HOP-62 NSCLC was greater than 10 µM throughout. Also, the TGI in the assay on SW-620 colon, with K-562 leukemia and in the assay on HS 578T breast was greater than 10 µM in each case.

Turning to `O=C1C=C(N2CCN(c3ncccn3)CC2)C(=O)c2c(O)ccc(O)c21`, the TGI is greater than 100 µM with HCT-116 colon; greater than 100 µM in the assay with NCI-H460 lung; greater than 100 µM with LOX IMVI melanoma; 55.7 µM in the assay with SF-539 CNS; 46.6 µM in the assay with MALME-3M melanoma; greater than 100 µM with HOP-62 NSCLC. Further, the TGI in the assay on SW-620 colon, in the assay on K-562 leukemia and with HS 578T breast was greater than 100 µM in each case.

Turning to `Oc1c(Cl)cc2cc1-c1cc(cc(Cl)c1O)CCc1c(cc(Cl)c(O)c1Cl)-c1cc(Cl)c(c(Cl)c1O)/C=C\2`, the TGI with HCT-116 colon was found to be 15.3 µM; with NCI-H460 lung, 13.1 µM; in the assay on LOX IMVI melanoma, 20 µM; in the assay on SK-MEL-2 melanoma it was 17.5 µM; with HOP-62 NSCLC, 16 µM; in the assay on SW-620 colon it was 31.5 µM. Moreover, the TGI was greater than 50 µM in the assay on K-562 leukemia and 33.7 µM in the assay with HS 578T breast.
